# Data published in US8697123B2, “Medication on the basis of 3,3′-diindolylmethane (DIM) with high-bioavailability and its use in treatment of human hyperplastic and inflammatory diseases” (Zakrytoye akstionernoye obschestvo “VELES FARMA”, priority 2010, dated 2014).
# Assays:
# [1] = Clinical efficiency of DIM-HB and crystalline DIM in equal doses; type: in vivo, human
# From the text: All classical studies compared the efficiencies of DIM-HB and crystalline DIM in equal doses.
# These differences are probably attributed to effective therapeutic DIM concentrations reached in the peripheral blood and target tissues in response to DIM-HB treatment.
# [2] = set-up: species or system rats; settings: rat, in vivo, 200 mg/kg
# Method: Concentration of 3,3′-diindolylmethane (μg/ml) in the Blood Plasma of Experimental Animals Given 200.0 mg/kg of 3,3′-diindolylmethane Substance Intrastomachically.
# The results of measurements of 3,3′-diindolylmethane substance concentration in the blood plasma of rats given the substance intrastomachically are shown in Table 1.
# 3,3′-diindolylmethane Concentration (μg/ml) in the Blood Plasma of Experimental Animals Given […] of High-Bioavailability 3,3′-diindolylmethane Intrastomachically.
# The results of measurements of 3,3′-diindolylmethane substance concentration in the blood plasma of rats given the substance intrastomachically are shown in Table 2.
# [3] = DIM concentration in patients' blood plasma; type: in vivo, human; settings: dose 100 mg
# From the text: Study of DIM Concentration in Patients' Blood Plasma These differences are probably attributed to effective therapeutic DIM concentrations reached in the peripheral blood and target tissues in response to DIM-HB treatment.
structure (smiles),measurement,setting,value
"c1ccc2c(Cc3c[nH]c4ccccc34)c[nH]c2c1 [Crystalline DIM, 3,3′-diindolylmethane]",dynamics in all study groups of patients in response to treatment,[1],no dynamics at all
same,maximum concentration in the system blood flow,[2],0.13 to 0.17 µg/mL
same,minimum concentration 12 hours after administration,[2],less than 0.03 μg/ml
same,time at which the maximum concentration was observed,[2],about 1 hour
same,DIM concentration in the plasma,[3],20 to 30 ng/mL
